In patent publication US5948792A, “Fluorine-containing 1,4-disubstituted piperidine derivatives” (Banyu Pharmaceutical Co., Ltd., priority 1996, dated 1999):

Legend:
Muscarinic M3 receptor [1] = molecular target: T1, Muscarinic M3 receptor (Homo sapiens, UniProt P20309); experiment: Inhibition of binding of [3H]-N-methylscopolamine to muscarinic M3 receptor
T1 construct: purchased Receptor Biology, Inc; host or cells: CHO cells (membranes)
Description: (§1) Tests on Inhibition of Binding to Muscarinic Receptors
(§2) These tests were performed according to a modification of the method of Hargreaves et al. (Br. J. Pharmacol. 107: 494-501, 1992). Membranes from CHO cells expressing cloned human m1-m5 (Receptor Biology, Inc.) were incubated with 0.2 nM [^3 H]-N-methylscopolamine and each a compound of the present invention to be tested in 0.5 ml of 50 mM Tris-HCl-10 mM MgCl2 -1 mM EDTA (pH 7.4) for 2 hours at 25° C. Free and membrane-bound [^3 H]-N-methylscopolamine were separated by filtration over glass filters (UniFilter-GF/C; Packard Instruments Co., Inc.) using cell harvester (Filtermate™ 196; Packard Instruments Co., Inc.). Then the filter was washed four times with 1 ml of ice-cold Tris-HCl (pH 7.4) and dried at 50° C. After adding a scintillator (Microscinti 0; Packard Instruments Co., Inc.), the radioactivity was counted by a liquid scintillation counter (TopCount™; Packard Instruments Co., Inc.). Non-specific binding was measured in the presence of 1 μM N-methylscopolamine.

Muscarinic M2 receptor = molecular target: T2, Muscarinic M2 receptor (Homo sapiens, UniProt P08172); experiment: Inhibition of binding of [3H]-N-methylscopolamine to muscarinic M2 receptor; settings: CHO cell membranes expressing cloned human receptor; 0.2 nM [3H]-N-methylscopolamine, pH 7.4, 2 hours, 25° C; read-out: Ki M2 (inhibitory effects on binding to muscarinic M2 receptor)
T2 construct: purchased Receptor Biology, Inc; host or cells: CHO cells (membranes)
T2 sequence (P08172 1-466): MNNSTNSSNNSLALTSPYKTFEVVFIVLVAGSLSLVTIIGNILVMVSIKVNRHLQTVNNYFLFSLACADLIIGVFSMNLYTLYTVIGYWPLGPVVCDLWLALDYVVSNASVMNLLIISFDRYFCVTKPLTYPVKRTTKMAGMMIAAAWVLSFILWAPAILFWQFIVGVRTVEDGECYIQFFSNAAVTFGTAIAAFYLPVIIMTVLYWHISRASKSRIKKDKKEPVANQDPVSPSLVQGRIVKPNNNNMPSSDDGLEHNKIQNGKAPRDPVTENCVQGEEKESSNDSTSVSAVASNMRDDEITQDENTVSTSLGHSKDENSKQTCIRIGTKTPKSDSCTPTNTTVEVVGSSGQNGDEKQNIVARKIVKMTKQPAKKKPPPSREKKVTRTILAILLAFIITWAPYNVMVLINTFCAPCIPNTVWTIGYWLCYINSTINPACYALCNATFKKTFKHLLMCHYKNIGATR
Description: as §1, §2

Muscarinic M3 Receptor [2] = molecular target: T3, Muscarinic M3 Receptor (Rattus norvegicus, UniProt P08483); experiment: Bronchodilation in rats (p.o.), inhibition of acetylcholine-induced increase in airway resistance; format: in vivo; settings: po, 1 h, acetylcholine 50 μg/kg i.v. 60 minutes after test compound, read-out: Inhibition of Airway Contraction ED50 po
T3 construct: male rats of the Sprague-Dawley strain; from tissue; host or cells: airways of living male Sprague-Dawley rats (in vivo)
Description: (§3) Tests for Antagonism Against Muscarinic M3 Receptor (in vivo)
1-B) Tests for Bronchodilation in Rats (p.o.)
Eight- to eleven-weeks-old male rats of Sprague-Dawley strain weighing 380-420 g were orally administered with a test compound. The rats were treated in the identical manner as in the i.v. test, starting 30 minutes after the administration, and their airway resistance values were measured. The acetylcholine-(50 μg/kg, i.v.) induced airway resistance increase were measured 60 minutes after the administration of test compounds. In controls, isotonic sodium chloride solution was used in place of the test compounds and otherwise identical procedures were repeated, the ratio between the two airway resistance values whereby being set to be 100%.

Muscarinic M3 Receptor [3] = experiment: Bronchodilation in dogs (p.o.), methacholine provocation test; format: in vivo, dog; settings: beagle dogs, 1 mg/kg p.o., 4 hours after administration
Description: as §3
2) Tests for Bronchodilation in Dogs (p.o.)
Twelve- to twenty-four-months-old male beagle dogs (weighing 10-15 kg) were anesthetized with pentobarbital (30 mg/kg, i.v.) and intubated in their bronchus. Their airway sensitivity to inhaled methacholine were measured at least twice at two-weeks interval, and the dogs showing a reproducible methacholine reaction threshold values^1) ware selected. To those dogs whose methacholine reaction threshold value had been confirmed, the test compounds were orally administered (1 mg/kg). Four hours after the administration, the methacholine provocation test was conducted, and then the methacholine reaction threshold value^2) after administration of the test compound was obtained.
The bronchodilator activity of the test compound was determined following equation: [formula]
The methacholine provocation test was conducted using Astograph TCK-6100H Model (Chest). Methacholine chloride was used as bronchoconstritor, which was diluted with isotonic sodium chloride solution in 10-grade concentration levels starting from 40,000 μg/ml, as 20,000, 10,000, 5,000, 2,500, 1,250, 625, 312.5, 156 and 78 μg/ml. These methacholine aerosols were inhaled to the test animal each for 1 min, starting from the lowest concentration level, and respiration resistance was continuously recorded. The concentration level at which the respiration resistance reached twice the initial value was recorded as the methacholine threshold value.

Muscarinic M3 Receptor [4] = molecular target: T3, Muscarinic M3 Receptor; experiment: Bronchodilation in rats (i.v.), inhibition of acetylcholine-induced increase in airway resistance; format: in vivo; settings: iv, 5 min, acetylcholine 50 μg/kg i.v. 5 minutes after test compound, read-out: Inhibition of Airway Contraction ED50 iv
Description: as §3
1-A) Tests for Bronchodilation in Rats (i.v.).
Eight- to eleven-weeks-old male rats of the Sprague-Dawley strain, weighing 380-420 g, were anesthetized with urethane (750 mg/kg. i.p.) and α-chloralose (37.5 mg/kg, i.p.). The bronchus of each rat was intubated, and the right jugular vein was cannulated for drug administration. […] To evoke an increase in airway resistance, acetylcholine (50 μg/kg, i.v.) was administered to the animals. The acetylcholine-induced airway resistance increase was measured 5 minutes before and 5 minutes after administration of test compound, and the ratio of the airway resistance of the latter to the former was calculated. In controls, isotonic sodium chloride solution was used in place of the test compounds and otherwise identical procedures were repeated, the calculated ratio being set to be 100%.

T3 sequence (P08483 whole entry): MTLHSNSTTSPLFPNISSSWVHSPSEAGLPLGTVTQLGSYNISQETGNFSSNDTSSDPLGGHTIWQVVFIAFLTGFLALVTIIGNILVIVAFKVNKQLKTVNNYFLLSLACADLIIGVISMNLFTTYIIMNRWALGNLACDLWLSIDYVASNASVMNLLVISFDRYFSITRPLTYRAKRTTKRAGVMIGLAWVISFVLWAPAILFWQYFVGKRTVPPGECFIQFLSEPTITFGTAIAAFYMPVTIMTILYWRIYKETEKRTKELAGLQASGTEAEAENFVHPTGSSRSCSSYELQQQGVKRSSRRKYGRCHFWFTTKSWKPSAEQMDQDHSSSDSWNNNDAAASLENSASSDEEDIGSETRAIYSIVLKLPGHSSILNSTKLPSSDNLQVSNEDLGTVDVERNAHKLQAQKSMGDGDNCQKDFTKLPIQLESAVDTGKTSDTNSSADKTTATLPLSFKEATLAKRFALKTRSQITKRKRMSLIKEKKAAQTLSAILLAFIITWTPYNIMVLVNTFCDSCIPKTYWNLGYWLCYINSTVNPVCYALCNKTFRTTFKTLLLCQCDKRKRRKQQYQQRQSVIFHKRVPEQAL
T1 sequence (P20309 whole entry): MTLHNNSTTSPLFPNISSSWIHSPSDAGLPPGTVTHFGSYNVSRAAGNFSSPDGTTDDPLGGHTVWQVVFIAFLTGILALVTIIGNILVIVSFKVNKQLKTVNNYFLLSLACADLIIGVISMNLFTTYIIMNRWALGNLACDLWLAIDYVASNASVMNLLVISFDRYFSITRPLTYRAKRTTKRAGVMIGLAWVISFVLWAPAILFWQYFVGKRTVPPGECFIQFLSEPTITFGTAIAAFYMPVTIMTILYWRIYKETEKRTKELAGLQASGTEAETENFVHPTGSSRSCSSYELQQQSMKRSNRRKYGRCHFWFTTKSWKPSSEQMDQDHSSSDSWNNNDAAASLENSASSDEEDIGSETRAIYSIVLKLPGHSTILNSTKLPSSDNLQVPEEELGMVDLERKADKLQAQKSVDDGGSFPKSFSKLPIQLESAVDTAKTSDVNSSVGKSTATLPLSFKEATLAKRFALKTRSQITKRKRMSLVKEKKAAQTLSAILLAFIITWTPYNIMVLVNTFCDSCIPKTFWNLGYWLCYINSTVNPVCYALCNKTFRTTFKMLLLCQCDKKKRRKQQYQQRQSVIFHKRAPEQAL

In the case of `COc1cc(CN2CCC(NC(=O)[C@](O)(c3ccccc3)[C@@H]3CCC(F)(F)C3)CC2)ccc1N` [Example 26, (2R)-N-[1-(4-amino-3-methoxybenzyl)piperidin-4-yl]-2-[(1R)-3,3-difluorocyclopentyl]-2-hydroxy-2-phenylacetamide], the Ki (Muscarinic M3 receptor [1]; CHO cell membranes expressing cloned human receptor, 0.2 nM [3H]-N-methylscopolamine, pH 7.4, 2 hours, 25° C, read-out: Ki M3 (inhibitory effects on binding to muscarinic M3 receptor)) is reported as 0.022 µM, the “M2/M3 (ratio of binding Ki)” value (Muscarinic M3 receptor [1]; selectivity ratio of Ki values, binding) is reported as 1100 and the Ki (Muscarinic M2 receptor) is reported as 24 µM. For the same compound, the ED50 (Muscarinic M3 Receptor [2]) was 0.95 mg/kg, the “Methacholine Inhalation-inducing Test shift value (after 4 hrs.)” value (Muscarinic M3 Receptor [3]) was > 64 and the ED50 (Muscarinic M3 Receptor [4]) was 0.37 mg/kg.
